Measurements published in ChEMBL document CHEMBL1157114, “Synthesis and structure-activity relationships of a series of (1H-pyrazol-4-yl)acetamide antagonists of the P2X7 receptor” (Bioorg Med Chem Lett, 2010).
Values after ≈ are worked out from the molar mass of the structure shown.

Columns and labels:
[1] = biological target: T1, P2X purinoceptor 7 (Homo sapiens) (UniProt Q99572); test: Inhibition of human P2X7 receptor assessed as inhibition of ethidium bromide accumulation relative to control
T1 sequence (whole entry): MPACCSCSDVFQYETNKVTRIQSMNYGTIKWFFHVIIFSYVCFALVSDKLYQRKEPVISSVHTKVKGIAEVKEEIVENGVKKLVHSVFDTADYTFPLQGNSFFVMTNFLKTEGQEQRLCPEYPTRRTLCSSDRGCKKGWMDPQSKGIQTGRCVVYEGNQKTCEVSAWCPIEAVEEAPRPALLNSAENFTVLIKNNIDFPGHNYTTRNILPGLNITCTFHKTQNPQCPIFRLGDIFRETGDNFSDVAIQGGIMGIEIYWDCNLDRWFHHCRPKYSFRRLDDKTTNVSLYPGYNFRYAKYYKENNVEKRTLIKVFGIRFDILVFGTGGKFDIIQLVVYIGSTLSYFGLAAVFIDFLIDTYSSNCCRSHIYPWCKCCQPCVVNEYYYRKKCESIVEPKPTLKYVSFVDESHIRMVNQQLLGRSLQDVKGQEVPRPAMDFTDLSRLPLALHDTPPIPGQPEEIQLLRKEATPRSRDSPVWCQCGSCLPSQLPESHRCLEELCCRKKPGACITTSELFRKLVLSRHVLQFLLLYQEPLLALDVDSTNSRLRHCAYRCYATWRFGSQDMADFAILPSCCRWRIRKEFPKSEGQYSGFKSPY

P2X purinoceptor 7 [2] = biological target: T2, P2X purinoceptor 7 (Homo sapiens, UniProt Q99572); test: Inhibition of human P2X7 receptor assessed as inhibition of ethidium bromide accumulation
T2 sequence (Q99572 whole entry): T1 sequence (whole entry)

[3] = Aqueous solubility of the compound; type: physicochemical
[4] = Clearance in rat blood at 1 mg/kg, iv; type: ADME, organism-based; design: dose 1 mg/kg, route intravenous
P2X purinoceptor 7 [5] = biological target: T3, P2X purinoceptor 7 (Rattus norvegicus, UniProt Q64663); test: Inhibition of rat P2X7 receptor assessed as inhibition of ethidium bromide accumulation
T3 sequence (Q64663 whole entry): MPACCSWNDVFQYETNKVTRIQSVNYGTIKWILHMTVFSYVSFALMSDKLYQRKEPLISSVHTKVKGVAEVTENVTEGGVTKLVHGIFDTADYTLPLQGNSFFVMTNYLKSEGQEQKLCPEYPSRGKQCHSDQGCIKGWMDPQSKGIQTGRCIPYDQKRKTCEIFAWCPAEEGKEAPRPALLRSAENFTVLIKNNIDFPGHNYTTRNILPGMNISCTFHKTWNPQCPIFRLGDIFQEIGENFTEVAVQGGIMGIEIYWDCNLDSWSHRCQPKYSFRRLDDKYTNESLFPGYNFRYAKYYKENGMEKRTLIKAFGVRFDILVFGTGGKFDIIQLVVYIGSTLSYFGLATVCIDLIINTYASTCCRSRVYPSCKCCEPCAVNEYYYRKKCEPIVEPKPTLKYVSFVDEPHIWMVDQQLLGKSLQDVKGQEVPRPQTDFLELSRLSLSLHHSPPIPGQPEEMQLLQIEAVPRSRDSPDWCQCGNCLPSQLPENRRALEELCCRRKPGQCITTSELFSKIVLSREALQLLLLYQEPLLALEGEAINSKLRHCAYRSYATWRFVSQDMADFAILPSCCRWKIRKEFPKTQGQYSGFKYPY

[6] = Volume of distribution at steady state in rat blood at 1 mg/kg, iv; type: ADME, organism-based; design: dose 1 mg/kg, route intravenous; conditions: read-out: Vdss
[7] = Half life in rat blood at 1 mg/kg, iv; type: ADME, organism-based; design: dose 1 mg/kg, route intravenous
[8] = Oral bioavailability in rat blood at 3 mg/kg, po; type: ADME, organism-based
[9] = Cmax in rat blood at 3 mg/kg, po; type: ADME, organism-based; design: dose 3 mg/kg, route oral
Rattus norvegicus = test: Dose normalized AUC in rat blood at 3 mg/kg, po; type: ADME, organism-based; design: dose 3 mg/kg, route oral; conditions: in vivo
[10] = Tmax in rat blood at 3 mg/kg, po; type: ADME, organism-based; design: dose 3 mg/kg, route oral

Imax [1] [%]	IC50 (P2X purinoceptor 7 [2]) [nM]	SMILES	other results
100	200	Cc1nn(CCO)c(C)c1CC(=O)NCc1ccc(F)cc1Cl	–
100	> 1000	Cc1sc(-c2ccccc2)nc1CC(=O)NCc1ccc(F)cc1Cl	–
100	50.1	Cc1nn(-c2ncccn2)c(C)c1CC(=O)NCc1ccc(F)cc1Cl	–
100	> 1000	Cc1nn(-c2ccccc2)c(C)c1CC(=O)N(C)Cc1ccc(F)cc1Cl	–
100	79.4	Cc1nn(-c2ccccc2)c(C)c1CC(=O)NCc1ccc(Cl)cc1Cl	–
100	> 1000	Cc1cccnc1CNC(=O)Cc1c(C)nn(-c2ccccc2)c1C	–
100	50.1	Cc1nc(-c2ccccc2)n(C)c1CC(=O)NCc1ccc(F)cc1Cl	–
100	> 1000	Cc1oc(-c2ccccc2)nc1CC(=O)NCc1ccc(F)cc1Cl	–
100	251	Cc1nn(-c2ccccc2)c(C)c1NC(=O)NCc1ccc(F)cc1Cl	–
100	158	Cc1nn(-c2ccccc2)c(C)c1CC(=O)NC1CCCCCC1	–
100	> 1000	Cc1nc(-c2ccccc2)sc1CC(=O)NCc1ccc(F)cc1Cl	–
100	100	COc1ccc(-n2nc(C)c(CC(=O)NCc3ccc(F)cc3Cl)c2C)cc1	–
100	158	Cc1nn(C)c(C)c1CC(=O)NCc1ccc(F)cc1Cl	–
100	10	Cc1nn(-c2ccc(C(N)=O)cc2)c(C)c1CC(=O)NCc1ccc(F)cc1Cl	–
100	20	Cc1n[nH]c(C)c1CC(=O)NCc1ccc(F)cc1Cl	solubility [3]: 732 µg/mL (≈ 2480 µM); clearance [4]: 15 mL/min/kg; IC50 (P2X purinoceptor 7 [5]): 158 nM; Vd [6]: 1.6 L/kg; half-life [7]: 1.7 h; bioavailability [8]: 90%; Cmax [9]: 2920 nM; AUC (Rattus norvegicus): 58 kg·min/L; Tmax [10]: 1 h
100	–	O=C(CN1CC(=O)N(c2ccccc2)C1=O)NCc1ccc(F)cc1Cl	–

Imax [1] [%]	IC50 (P2X purinoceptor 7 [2]) [nM]	SMILES	other results
100	63.1	Cc1nn(-c2ccc(Cl)cc2)c(C)c1CC(=O)NCc1ccc(F)cc1Cl	–
100	316	Cc1nn(Cc2ccccc2)c(C)c1CC(=O)NCc1ccc(F)cc1Cl	–
100	1260	Cc1nn(-c2ccccc2)c(C)c1Cc1nnc(Cc2ccc(Cl)cc2Cl)o1	–
100	> 1000	Cc1nn(-c2ccccc2)c(C)c1C(=O)NCc1ccc(F)cc1Cl	–
100	> 1000	COc1ccccc1CNC(=O)Cc1c(C)nn(-c2ccccc2)c1C	–
100	25.1	Cc1nn(-c2ccccc2)c(C)c1CC(=O)NCc1cccc(Cl)c1Cl	–
100	126	Cc1nn(-c2ccccc2)c(C)c1CC(=O)NC(C)(C)c1ccccc1	–
100	> 1000	Cc1nn(-c2ccccc2)c(C)c1CC(=O)NCc1ccccc1	–
100	> 631	Cc1nn(-c2ccccc2)c(C)c1CC(=O)NCc1cc(Cl)cc(Cl)c1	–
100	1000	Cc1nn(-c2ccccc2)c(C)c1CC(=O)NCc1ccccc1Cl	–
100	126	Cc1nn(Cc2cccnc2)c(C)c1CC(=O)NCc1ccc(F)cc1Cl	–
100	158	Cc1c(CC(=O)NCc2ccc(F)cc2Cl)cnn1-c1ccccc1	–
100	39.8	Cc1nn(-c2ccccc2)c(C)c1CC(=O)NCc1ccc(F)cc1Cl	solubility [3]: 110 µg/mL (≈ 296 µM); IC50 (P2X purinoceptor 7 [5]): 100 nM
100	> 1000	Cc1nn(-c2ccccc2)c(C)c1CNC(=O)Cc1ccc(F)cc1Cl	–
100	316	Cc1nn(CCN(C)C)c(C)c1CC(=O)NCc1ccc(F)cc1Cl	–
100	158	Cc1nn(-c2ccccc2)cc1CC(=O)NCc1ccc(F)cc1Cl	–
